{"source": "paper PMC2395599", "about": "“Low Dose Histone Deacetylase Inhibitor, Depsipeptide (FR901228), Promotes Adenoviral Transduction in Human Rhabdomyosarcoma Cell Lines” (Sarcoma, 2004)", "key": {"av integrin": {"system": "av integrin", "experiment": "Semi-quantitative RT-PCR for αv integrin RNA expression in RMS cells", "format": "cell-based, human", "settings": "0.5 ng/ml, 72 h; for fold av integrin expression: Fig. 3b", "description": "(§1) Sarcoma, March 2004, VOL. 8, NO. […] Methods. […] Results. […] Conclusions. […] Human av integrin primers:8 sense 50 -[…] AGT and antisense 50 -CAGTG[…] […] Cells were harvested after 72 h of treatment. Cell number was determined using a colorimetric MTT assay. […] The cells were replenished with complete media. […] References 1. […] Science 1997; 275: 1320-3. 2. […] J Virol 2000; 74: 42-8. 3. […] Virology 2000; 268: 382-90. 4. Wickham TJ, Mathias P, Cheresh DA, Nemerow GR. […] Cell 1993; 73: 309-19. 5. […] J Biol Chem 2000; 275: 14729-35. 6. […]. […] Cancer Res 1998; 58: 5738-48. 7. […] Cancer Res 1999; 59: 325-30. 8. […] Cancer Res 2001; 61: 6328-30. 9. […] Cancer Res 2001; 61: 2953-60. 10. […] J Biol Chem 1997; 272: 6479-89. 11."}, "[1]": {"system": "adenovirus AdU1 (GFP) uptake in RMS cell lines", "experiment": "Adenoviral (AdU1) GFP expression in RMS cell lines pretreated with depsipeptide, Western blot densitometry", "format": "cell-based, human", "settings": "0.5 ng/ml 72 h pretreatment; for fold GFP expression: Fig. 2b", "description": "as §1"}, "[2]": {"system": "acetylated histone H3 in CTR cells", "experiment": "Western blot analysis for histone H3 acetylation", "format": "cell-based, human", "settings": "CTR cell line, 0.5 ng/ml, 72 h, histone H3 loading control", "description": "as §1"}, "[3]": {"system": "coxackie and adenovirus receptor (CAR)", "experiment": "Semi-quantitative RT-PCR for CAR RNA expression in RMS cells", "format": "cell-based, human", "settings": "0.5 ng/ml, 72 h; for fold CAR expression: Fig. 3a", "description": "as §1"}, "[4]": {"system": "RMS cell lines (RD4a, CTR, RH5, RH13, RH18, RH30)", "settings": "0.5 ng/ml, 72 h, six RMS cell lines, MTT, triplicate, DMSO controls"}, "[5]": {"settings": "range over four of six RMS cell lines, RT-PCR normalised to GAPDH"}}, "note": "Where “and” joins values, the source holds several entries; their conditions need not be identical. Equal values may be shown once.", "data": [{"smiles": "C/C=C1\\NC(=O)[C@H]2CSSCC/C=C/[C@H](CC(=O)N[C@H](C(C)C)C(=O)N2)OC(=O)[C@H](C(C)C)NC1=O", "note": "[depsipeptide (FR901228), Depsipeptide (FR901228)]", "values": [{"measurement": "fold av integrin expression", "setting": "av integrin; CTR", "value": "2.2 X and 2 X"}, {"measurement": "fold av integrin expression", "setting": "av integrin; RD4a", "value": 1.3, "unit": "X"}, {"measurement": "fold av integrin expression", "setting": "av integrin; RH5", "value": 6.6, "unit": "X"}, {"measurement": "fold av integrin expression", "setting": "av integrin; RH13", "value": 6.9, "unit": "X"}, {"measurement": "fold av integrin expression", "setting": "av integrin; RH18", "value": 1.5, "unit": "X"}, {"measurement": "fold av integrin expression", "setting": "av integrin; RH30", "value": 1.1, "unit": "X"}, {"measurement": "fold modulation of av integrin expression", "setting": "av integrin; [5]", "value": "1.5-6.9 fold"}, {"measurement": "GFP protein expression", "setting": "[1]; CTR", "value": "No GFP protein expression was detected"}, {"measurement": "fold GFP expression", "setting": "[1]; RD4a", "value": 2.7, "unit": "X"}, {"measurement": "fold GFP expression (adenoviral uptake)", "setting": "[1]; RH5, Fig. 2b and text", "value": "2.6 X and 2.8 X"}, {"measurement": "fold GFP expression", "setting": "[1]; RH13", "value": 2.8, "unit": "X"}, {"measurement": "fold GFP expression", "setting": "[1]; RH18", "value": 7.8, "unit": "X"}, {"measurement": "fold GFP expression", "setting": "[1]; RH30", "value": 8.6, "unit": "X"}, {"measurement": "acetylated histone H3", "setting": "[2]", "value": "increase in acetylated histone H3"}, {"measurement": "CAR expression", "setting": "[3]; CTR", "value": "lack of CAR expression"}, {"measurement": "fold CAR expression", "setting": "[3]; RD4a", "value": 4.8, "unit": "X"}, {"measurement": "fold CAR expression", "setting": "[3]; RH5", "value": 1.2, "unit": "X"}, {"measurement": "fold CAR expression", "setting": "[3]; RH13", "value": 3.3, "unit": "X"}, {"measurement": "fold CAR expression", "setting": "[3]; RH18", "value": 2.8, "unit": "X"}, {"measurement": "fold CAR expression", "setting": "[3]; RH30", "value": 8.1, "unit": "X"}, {"measurement": "fold increase in CAR expression compared to untreated cells", "setting": "[3]; [5]", "value": "2.8-8.1 fold"}, {"measurement": "growth inhibition of RMS cells compared to controls", "setting": "[4]", "value": "less than 20%"}]}]}
